Measured values: patent US20230146455A1, “TREATMENT OF INFLAMMATORY DISEASES WITH PEPTIDES AND PHARMACEUTICAL COMPOSITIONS” (Yuyu Pharma, Inc., priority 2020, published 2023)
Where “and” joins values, the source holds several entries; their conditions need not be identical. Equal entries are not always repeated. Where a SMILES comes first, the peptide text is derived from it. [ ]: non-standard residue; d: D form. Hyp = O=C(O)[C@@H]1C[C@@H](O)CN1

System: IL-2
Experiment: Example 9 Luminex, LPS hPBMCs: IL-2
Assay type: cell-based, human
Settings: for IL-2 Concentration: dilution 2.0
Protocol: Treatment Human PBMCs were pretreated with YY-101, YDE-011 and YDE-043 or reference compound; Xiidra® at various concentration (ranging from 1 nM to 100 uM) for 2 h before stimulation. An equal volume of 0.5% DMSO was used as a vehicle control. Then, the cells were treated with LPS at 5 ug/ml. The supernatants from treated cells were harvested at 24 h and placed in a 96 well for Luminex cytokine & chemokine profiling using a Luminex 200 multiplex assay (Luminex; R&D system, USA).
The main study arm with triplicate wells per group in a 24-well plate: • 1. Blank • 2. PBMC: 0.5% DMSO • 3. PBMC+LPS (5 ug/ml) • 4. PBMC+YY-101 100 uM • 5. PBMC+YY-101 10 uM • 6. PBMC+YY-101 1 uM • 7. PBMC+YY-101 0.1 uM • 8. PBMC+YY-101 0.01 uM • 9. PBMC+LPS (5 ug/ml)+Xiidra®100 uM • 10. PBMC+LPS (5 ug/ml)+Xiidra® 10 uM • 11. PBMC+LPS (5 ug/ml)+Xiidra® 1 uM • 12. PBMC+LPS (5 ug/ml)+Xiidra®0.1 uM • 13. PBMC+LPS (5 ug/ml)+Xiidra®0.01 uM • 14. PBMC+LPS (5 ug/ml)+Xiidra®0.001 uM • 15. PBMC+LPS (5 ug/ml)+YY-101 100 uM • 16. PBMC+LPS (5 ug/ml)+YY-101 10 uM • 17. PBMC+LPS (5 ug/ml)+YY-101 1 uM • 18. PBMC+LPS (5 ug/ml)+YY-101 0.1 uM • 19. PBMC+LPS (5 ug/ml)+YY-101 0.01 uM • 20. PBMC+LPS (5 ug/ml)+YY-101 0.001 uM • 21. PBMC+LPS (5 ug/ml)+YDE-011 100 uM • 22. PBMC+LPS (5 ug/ml)+YDE-011 10 uM • 23. PBMC+LPS (5 ug/ml)+YDE-011 1 uM • 24. PBMC+LPS (5 ug/ml)+YDE-011 0.1 uM • 25. PBMC+LPS (5 ug/ml)+YDE-011 0.01 uM • 26. PBMC+LPS (5 ug/ml)+YDE-011 0.001 uM • 27. PBMC+LPS (5 ug/ml)+YDE-043 100 uM • 28. PBMC+LPS (5 ug/ml)+YDE-043 10 uM • 29. PBMC+LPS (5 ug/ml)+YDE-043 1 uM • 30. PBMC+LPS (5 ug/ml)+YDE-043 0.1 uM • 31. PBMC+LPS (5 ug/ml)+YDE-043 0.01 uM • 32. PBMC+LPS (5 ug/ml)+YDE-043 0.001 uM
Multiplex assay was used to measure 30 cytokines and chemokines. The 1:2, 1:10 and 1:200 diluted cell supernatant and serial dilution of the standard were dispensed into a 96 well plate at 50 ul/well. Then, the pre-mixed cocktail of antibody-coated magnetic beads was dispensed at 50 ul/well and incubated at room temperature for 2 h in a horizontal orbital microplate shaker at 800±500 rpm. The beads were washed using a magnetic device to prevent loss. The biotin-antibody was dispensed in 50 ul of each well and incubated at room temperature for 1 h in a shaker at 800±500 rpm. After washing, streptavidin-PE was added at 50 ul/well and incubated at room temperature for 30 min in a shaker under the same conditions. Finally, after washing, wash buffer (100 ul/well) was added to the plate and incubated in a shaker for 2 min. The Luminex™ 200 setting were set according to the manufacturer's protocol. The data was calculated with a standard five-parameter logistic nonlinear regression analysis of the data (xPonent software 4.2, USA). The levels of cytokine/chemokine are normalized to the live cell counts (1×10^5 cells/mL) and presented as concentrations per mL (pg/mL or ng/mL).

[1] = PBMC + LPS(5 ug/ml) + test article 0.001 uM, Mean
[2] = PBMC + LPS(5 ug/ml) + test article 0.001 uM, single replicates
[3] = PBMC + LPS(5 ug/ml) + test article 0.01 uM, Mean
[4] = PBMC + LPS(5 ug/ml) + test article 0.01 uM, single replicates
[5] = PBMC + LPS(5 ug/ml) + test article 0.1 uM, Mean
[6] = PBMC + LPS(5 ug/ml) + test article 0.1 uM, single replicates
[7] = PBMC + LPS(5 ug/ml) + test article 1 uM, Mean
[8] = PBMC + LPS(5 ug/ml) + test article 1 uM, single replicates
[9] = PBMC + LPS(5 ug/ml) + test article 10 uM, Mean
[10] = PBMC + LPS(5 ug/ml) + test article 10 uM, single replicates
[11] = PBMC + LPS(5 ug/ml) + test article 100 uM, Mean
[12] = PBMC + LPS(5 ug/ml) + test article 100 uM, single replicates
[13] = PBMC + test article 0.01 uM, no LPS, Mean
[14] = PBMC + test article 0.01 uM, no LPS, single replicates
[15] = PBMC + test article 0.1 uM, no LPS, Mean
[16] = PBMC + test article 0.1 uM, no LPS, single replicates
[17] = PBMC + test article 1 uM, no LPS, Mean
[18] = PBMC + test article 1 uM, no LPS, single replicates
[19] = PBMC + test article 10 uM, no LPS, Mean
[20] = PBMC + test article 10 uM, no LPS, single replicates
[21] = PBMC + test article 100 uM, no LPS, Mean
[22] = PBMC + test article 100 uM, no LPS, single replicates

Compound: CC(C)C[C@H](NC(=O)CNC(=O)[C@H](CC(=O)O)NC(=O)[C@H](CCC(N)=O)NC(=O)CNC(=O)[C@@H]1C[C@@H](O)CN1)C(=O)N[C@@H](C)C(=O)NCC(=O)N1CCC[C@H]1C(=O)N[C@@H](CCCCN)C(=O)O [YY-101] (H-[Hyp]GQDGLAGPK-OH; N-terminus and C-terminus assumed)
- IL-2 conc/live cell [1]: 0.9 pg/10^5
- MFI, Bead name: IL-2 [1]: 16.3
- IL-2 Concentration [1]: 5.7 pg/mL
- IL-2 Concentration [2]: 3.4 pg/mL and 7.6 pg/mL and 6.2 pg/mL
- IL-2 conc/live cell [2]: 0.6 pg/10^5 and 1.1 pg/10^5 and 0.9 pg/10^5
- MFI, Bead name: IL-2 [2]: 13.0 and 19.0 and 17.0
- IL-2 conc/live cell [3]: 1.4 pg/10^5
- MFI, Bead name: IL-2 [3]: 20.3
- IL-2 Concentration [3]: 8.6 pg/mL
- IL-2 Concentration [4]: 6.9 pg/ml (2×) and 11.8 pg/ml
- IL-2 conc/live cell [4]: 1.1 pg/10^5 (2×) and 2.0 pg/10^5
- MFI, Bead name: IL-2 [4]: 18.0 (2×) and 25.0
- IL-2 conc/live cell [5]: 0.0 pg/10^5
- MFI, Bead name: IL-2 [5]: 6.3
- IL-2 conc/live cell [6]: 0.0 pg/10^5
- MFI, Bead name: IL-2 [6]: 8.0 (2×) and 3.0
- IL-2 conc/live cell [7]: 0.6 pg/10^5
- MFI, Bead name: IL-2 [7]: 13.7
- IL-2 Concentration [7]: 3.8 pg/mL
- IL-2 Concentration [8]: 5.2 pg/mL and 3.7 pg/mL and 2.6 pg/mL
- IL-2 conc/live cell [8]: 0.8 pg/10^5 and 0.5 pg/10^5 and 0.4 pg/10^5
- MFI, Bead name: IL-2 [8]: 15.5 and 13.5 and 12.0
- IL-2 conc/live cell [9]: 0.8 pg/10^5
- MFI, Bead name: IL-2 [9]: 15.7
- IL-2 Concentration [9]: 5.3 pg/mL
- IL-2 Concentration [10]: 8.0 pg/mL and 4.1 pg/mL and 3.7 pg/mL
- IL-2 conc/live cell [10]: 1.3 pg/10^5 and 0.6 pg/10^5 and 0.5 pg/10^5
- MFI, Bead name: IL-2 [10]: 19.5 and 14.0 and 13.5
- IL-2 conc/live cell [11]: 0.1 pg/10^5
- MFI, Bead name: IL-2 [11]: 9.0
- IL-2 Concentration [11]: 1.1 pg/mL
- IL-2 Concentration [12]: 1.9 pg/mL and 0.4 pg/mL
- IL-2 conc/live cell [12]: 0.3 pg/10^5 and 0.1 pg/10^5 and 0.0 pg/10^5
- MFI, Bead name: IL-2 [12]: 11.0 and 9.0 and 7.0
- IL-2 conc/live cell [13]: 11.5 pg/10^5
- MFI, Bead name: IL-2 [13]: 93.3
- IL-2 Concentration [13]: 57.4 pg/mL
- IL-2 Concentration [14]: 56.9 pg/mL and 57.9 pg/mL
- IL-2 conc/live cell [14]: 10.9 pg/10^5 and 12.1 pg/10^5
- MFI, Bead name: IL-2 [14]: 92.5 and 94.0
- IL-2 conc/live cell [15]: 11.5 pg/10^5
- MFI, Bead name: IL-2 [15]: 96.3
- IL-2 Concentration [15]: 59.3 pg/mL
- IL-2 Concentration [16]: 45.4 pg/mL and 73.2 pg/mL
- IL-2 conc/live cell [16]: 10.3 pg/10^5 and 12.6 pg/10^5
- MFI, Bead name: IL-2 [16]: 75.0 and 117.5
- IL-2 conc/live cell [17]: 11.4 pg/10^5
- MFI, Bead name: IL-2 [17]: 101.5
- IL-2 Concentration [17]: 62.8 pg/mL
- IL-2 Concentration [18]: 59.8 pg/mL and 65.7 pg/mL
- IL-2 conc/live cell [18]: 10.9 pg/10^5 and 11.9 pg/10^5
- MFI, Bead name: IL-2 [18]: 97.0 and 106.0
- IL-2 conc/live cell [19]: 11.3 pg/10^5
- MFI, Bead name: IL-2 [19]: 113.5
- IL-2 Concentration [19]: 70.6 pg/mL
- IL-2 Concentration [20]: 69.6 pg/mL and 71.5 pg/mL
- IL-2 conc/live cell [20]: 10.9 pg/10^5 and 11.7 pg/10^5
- MFI, Bead name: IL-2 [20]: 112.0 and 115.0
- IL-2 conc/live cell [21]: 2.2 pg/10^5
- MFI, Bead name: IL-2 [21]: 29.0
- IL-2 Concentration [21]: 14.6 pg/mL
- IL-2 Concentration [22]: 13.2 pg/mL and 16.0 pg/mL
- IL-2 conc/live cell [22]: 2.1 pg/10^5 and 2.3 pg/10^5
- MFI, Bead name: IL-2 [22]: 27.0 and 31.0
